According to paper PMC12627933, “A First-In-Human Study of the SUMOylation Inhibitor Subasumstat in Patients with Advanced/Metastatic Solid Tumors or Relapsed/Refractory Hematologic Malignancies” (Cancer Research Communications, 2025):
Entries after “also recorded” stand apart in the source; their conditions may differ.

How the values were obtained:
[1] = Dose-limiting toxicities in cycle 1 and determination of MTD/RP2D (phase I dose escalation); format: in vivo; conditions: for n with DLTs during cycle 1: N = 6
Procedure: This study comprised two parts: a phase I dose escalation and a phase II dose expansion (Fig. 1). In the dose-escalation phase, patients were enrolled to receive subasumstat intravenously as a 1-hour (±10 minutes) infusion on days 1, 4, 8, and 11 of a 21-day cycle (biweekly schedule). […] Dose escalation was based on cohort with an adaptive design using Bayesian logistic regression modeling with overdose control. The starting dose of subasumstat was based on Good Laboratory Practice animal toxicity studies and supported by the estimation of a minimum anticipated biologically effective level. A detailed description of dose-limiting toxicities (DLT) is presented in the Supplementary Methods.
The occurrence of DLTs was assessed during cycle 1 (DLTs are described in the Supplementary Methods). Treatment-emergent adverse events (TEAE) were graded according to NCI Common Terminology Criteria for Adverse Events version 5.0, except for cytokine release syndrome (CRS), which was graded according to the American Society for Transplantation and Cellular Therapy Consensus Grading for CRS ([20]).
It was anticipated that approximately 70 DLT-evaluable patients would be enrolled for dose escalation. The safety analysis set included all patients who received at least one dose, even if incomplete, of subasumstat. […] The overall response rate (ORR) was defined as the proportion of patients who achieved complete response and partial response (PR) during the study. The disease control rate (DCR) was defined as the proportion of patients who achieved […] as per RECIST v1.1 for solid tumors or Lugano classification for lymphomas. […] Progression-free survival was summarized descriptively using the Kaplan–Meier method.
17. History of allogeneic tissue or solid organ transplant.
18. Second malignancy within the previous 3 years, except treated basal cell or localized squamous skin carcinomas, localized prostate cancer, cervical carcinoma in situ, resected colorectal adenomatous polyps, breast cancer in situ, or other malignancy for which the patient is not on active anticancer therapy.
19. Female patients who are lactating and breastfeeding or have a positive serum pregnancy test during the screening period or a positive urine pregnancy test on day 1 before first dose of study drug.
Definition of dose-limiting toxicities (DLTs) for phase I only
DLTs were defined as any AEs occurring in cycle 1 (unless considered unrelated to the study drug) with the following characteristics:
2. Nonfebrile grade 4 neutropenia (absolute neutrophil count [ANC] <0.5 ×
If myeloid growth factors are used, the event will be considered as DLT irrespective of the duration. […]
temperature of ≥38°C for ≥1 hour.
4. Grade 4 thrombocytopenia lasting ≥7 consecutive days. A platelet count <10
5. Grade 3 thrombocytopenia lasting longer than 14 days or accompanied by grade 2 bleeding or requiring transfusion.
6. Delay in the initiation of cycle 2 by ≥14 days due to a lack of adequate recovery of treatment-related hematological or nonhematologic toxicities.
7. Grade ≥3 nonhematologic toxicity with the following exceptions:
• Grade 3 arthralgia/myalgia that responds to nonsteroidal anti-inflammatory […]
• Grade 3 fatigue lasting fewer than 7 days.
• Grade 3 endocrine disorder that is managed with or without therapy and the patient is asymptomatic.
• Grade 3 or 4 inflammatory reaction attributed to a local antitumor […]
• Grade 3 infusion-related actions that resolves within 6 hours with appropriate clinical management.
• Grade 3 cytokine release syndrome that resolves to grade ≤1 in less than 7 days without end-organ damage.
• Asymptomatic laboratory changes (other than renal and hepatic laboratory values) that can be successfully supplemented (reversion of grade 4

IFNI pathway = IFNI pathway activation: IFNI gene signature in peripheral blood and plasma CXCL-10 (IP-10); format: in vivo, human
Procedure: Blood samples for subasumstat–SUMO adduct formation and SUMO2/3 inhibition assessments were collected before dose and at 1, 4, and 8 hours after the infusion on C1D1 and C1D8. Blood samples for additional biomarker analyses were collected before dose on C1D1 and C1D8 and at 4, 8, and 24 hours after infusion on C1D1 and C1D8. Skin biopsies (used as surrogate tissue for solid tumors) were collected at screening and on C1D8 at 2 hours (±30 minutes) after end of infusion, and tumor biopsies were collected at screening and cycle 2 day 8 (C2D8; +7 days; whenever possible). In blood samples, a custom flow cytometry assay was utilized for detecting target engagement and SUMOylated protein levels in lymphocytes (including T-, B-, and NK-cell subsets). The assay included a PE-conjugated antibody specifically recognizing the SUMO–subasumstat adduct (MIL-113, anti–cysteinyl-TAK-981, Epitomics; refs. [14], [15], [22]) and an AF488-conjugated antibody recognizing SUMO2/3 conjugates (MBL International, cat. #M114-3, RRID: AB_592769). Peripheral blood cells were lysed/fixed, permeabilized (BD Biosciences), and stained with MIL-113 and M114-3 and with antibodies against CD45, CD3, CD19, CD16/CD56, and CD14. […] Activation of the IFNI pathway was assessed in peripheral blood by analysis of gene expression data (PanCancer IO 360 panel by NanoString for phase I and whole-transcriptome RNA sequencing data for phase II). […] These seven IFNI-regulated genes were selected prior to the trial, based on in vitro studies of the effect of subasumstat on human blood from 10 healthy donors analyzed on the NanoString PanCancer IO 360 panel. Plasma chemokines and cytokines were measured using the MesoScale Discovery platform (pro-inflammatory and chemokine panels, BioAgilytix). […] Tumor PD-L1 expression level was assessed in paired tumor biopsies using the 22C3 PD-L1 IHC assay; combined positive score (CPS) was calculated for baseline and on-treatment tumor samples. The immune landscape in the tumor microenvironment (TME) was assessed using an integrated RNAscope and 27-marker MultiOmyx immunofluorescence panel.

NK cells and T cells = experiment: NK- and T-cell activation (CD69+ cells) in peripheral blood by flow cytometry; format: in vivo, human
Procedure: Blood samples for subasumstat–SUMO adduct formation and SUMO2/3 inhibition assessments were collected before dose and at 1, 4, and 8 hours after the infusion on C1D1 and C1D8. Blood samples for additional biomarker analyses were collected before dose on C1D1 and C1D8 and at 4, 8, and 24 hours after infusion on C1D1 and C1D8. Skin biopsies (used as surrogate tissue for solid tumors) were collected at screening and on C1D8 at 2 hours (±30 minutes) after end of infusion, and tumor biopsies were collected at screening and cycle 2 day 8 (C2D8; +7 days; whenever possible). […] Activation of the IFNI pathway was assessed in peripheral blood by analysis of gene expression data (PanCancer IO 360 panel by NanoString for phase I and whole-transcriptome RNA sequencing data for phase II). […] These seven IFNI-regulated genes were selected prior to the trial, based on in vitro studies of the effect of subasumstat on human blood from 10 healthy donors analyzed on the NanoString PanCancer IO 360 panel. Plasma chemokines and cytokines were measured using the MesoScale Discovery platform (pro-inflammatory and chemokine panels, BioAgilytix). […] Tumor PD-L1 expression level was assessed in paired tumor biopsies using the 22C3 PD-L1 IHC assay; combined positive score (CPS) was calculated for baseline and on-treatment tumor samples. […]

[2] = cited from earlier work

Cc1sc(C(=O)c2cncnc2N[C@@H]2C[C@H](COS(N)(=O)=O)[C@@H](O)C2)cc1[C@@H]1NCCc2ccc(Cl)cc21 [subasumstat]
n with DLTs during cycle 1 ([1]; 60 mg BIW): 1 | Description of DLT ([1]; 60 mg BIW, subasumstat reduced to 40 mg BIW): Transient grade 3 ALT/AST | n with DLTs during cycle 1 ([1]; 90 mg BIW): 1 | Description of DLT ([1]; 90 mg BIW, study treatment discontinued): Grade 3 pneumonitis | n with DLTs during cycle 1 ([1]; 120 mg BIW): 2 | Description of DLT ([1]; 120 mg BIW, n = 1 each): Grade 3 stomatitis; also recorded: Grade 3 cognitive disorder | Biologically / pharmacodynamically active dose ([1]; across a range of pharmacodynamic measures): ≥ 60 mg | Patients reporting DLTs ([1]; phase I, 74 of 84 DLT-evaluable, all in twice weekly cohorts): four | MTD ([1]; twice weekly (days 1, 4, 8, 11 of 21-day cycle), intravenous): 120 mg | Recommended phase II dose (RP2D) ([1]; twice weekly, intravenous): 90 mg | Dose from which IFNI gene signature and plasma CXCL-10 (IP-10) were upregulated (IFNI pathway; both dosing schedules, phase I, dose-dependent): ≥ 40 mg | Recovery of IFNI gene signature and IP-10 (IFNI pathway; both markers): returned to baseline levels before dose on C1D8 | Time to increase of IP-10 plasma concentration after end of infusion (IFNI pathway; plasma): ≤ 24 h | Time of peak CD69+ effect after infusion (NK cells and T cells; C1D1 and C1D8): 24 h | Dose from which percentage of CD69+ NK and T cells increased (NK cells and T cells; peripheral blood, both dose schedules and study phases): ≥ 60 mg | Lymphopenia ([2]; A20 lymphoma–bearing BALB/c mice): transient lymphopenia | B-cell depletion ([2]; mouse model of pancreatic ductal adenocarcinoma): transient B-cell depletion | Systemic toxicities ([2]; preclinical mouse models): No systemic toxicities were observed
